The subject of experiment [1] is Tyrophagus putrescentiae. Kind of experiment: Insecticidal activity against Tyrophagus putrescentiae assessed as mortality at 0.50 g/m'2 after 24 hr by clip method. In kind it is functional.
Experiment [2] deals with Tyrophagus putrescentiae. Kind of experiment: Insecticidal activity against Tyrophagus putrescentiae assessed as mortality at 0.10 g/m'2 after 24 hr by clip method. In kind it is functional.
The test system of experiment [3] is Coptotermes formosanus. Kind of experiment: Insecticidal activity against Coptotermes formosanus assessed as mortality at 0.025 g/m'2 after 24 hr. Format: functional.
Experiment [4] deals with Tyrophagus putrescentiae. Kind of experiment: Insecticidal activity against Tyrophagus putrescentiae assessed as mortality at 0.30 g/m'2 after 24 hr by clip method. Format: functional.
In the next experiment the test system is Phomopsis obscurans. Kind of experiment: Antifungal activity against Phomopsis obscurans MAFF 744018 after 15 days by agar dilution method. Format: functional. Particulars: Paraphomopsis obscurans, MAFF 744018, 360 h. For orientation: In agar dilution the substance is mixed into plates at graded concentrations.
The test system of experiment [5] is Dermatophagoides farinae. Kind of experiment: Insecticidal activity against Dermatophagoides farinae assessed as mortality at 0.50 g/m'2 after 24 hr by clip method. Format: functional.
The subject of experiment [6] is Tyrophagus putrescentiae. Kind of experiment: Insecticidal activity against Tyrophagus putrescentiae assessed as mortality at 0.40 g/m'2 after 24 hr by clip method. Format: functional.
The subject of the next experiment is Colletotrichum lagenaria. Kind of experiment: Antifungal activity against Colletotrichum lagenaria after 15 days by agar dilution method. In kind it is functional. Particulars: 360 h.
Experiment [7] has as its system Coptotermes formosanus. Kind of experiment: Insecticidal activity against Coptotermes formosanus assessed as mortality at 0.025 g/m'2 after 48 hr. In kind it is functional.
In experiment [8] the test system is Dermatophagoides farinae. Kind of experiment: Insecticidal activity against Dermatophagoides farinae assessed as mortality at 0.05 g/m'2 after 24 hr by clip method. Format: functional.
Experiment [9] has as its system Dermatophagoides farinae. Kind of experiment: Insecticidal activity against Dermatophagoides farinae assessed as mortality at 0.30 g/m'2 after 24 hr by clip method. Format: functional.
Experiment [10] concerns Dermatophagoides farinae. Kind of experiment: Insecticidal activity against Dermatophagoides farinae assessed as mortality at 0.025 g/m'2 after 24 hr by clip method. Format: functional.
The next experiment concerns the target T1, Thermolysin (Bacillus thermoproteolyticus, UniProt P00800).
T1 sequence (P00800 whole entry): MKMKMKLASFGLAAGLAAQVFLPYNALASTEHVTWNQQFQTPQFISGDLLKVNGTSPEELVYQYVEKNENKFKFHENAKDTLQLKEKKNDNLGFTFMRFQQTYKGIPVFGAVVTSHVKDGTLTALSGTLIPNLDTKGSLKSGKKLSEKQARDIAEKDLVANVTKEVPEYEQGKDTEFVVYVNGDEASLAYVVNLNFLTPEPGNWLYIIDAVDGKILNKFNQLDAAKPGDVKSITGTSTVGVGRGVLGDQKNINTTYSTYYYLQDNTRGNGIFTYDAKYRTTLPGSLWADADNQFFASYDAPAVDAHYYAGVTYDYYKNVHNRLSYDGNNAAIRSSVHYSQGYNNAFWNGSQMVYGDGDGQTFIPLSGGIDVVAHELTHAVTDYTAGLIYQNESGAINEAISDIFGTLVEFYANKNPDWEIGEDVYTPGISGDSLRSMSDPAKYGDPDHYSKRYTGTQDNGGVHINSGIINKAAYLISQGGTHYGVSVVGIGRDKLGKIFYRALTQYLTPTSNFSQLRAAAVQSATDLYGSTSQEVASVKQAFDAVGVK
Kind of experiment: Inhibition of Bacillus thermoproteolyticus thermolysin after 15 min.

In experiment [11] the test system is Tyrophagus putrescentiae. Kind of experiment: Insecticidal activity against Tyrophagus putrescentiae assessed as mortality at 0.80 g/m'2 after 24 hr by clip method. In kind it is functional.
Experiment [12] deals with Coptotermes formosanus. Kind of experiment: Insecticidal activity against Coptotermes formosanus assessed as mortality at 1 g/m'2 after 24 hr. In kind it is functional.
Experiment [13] has as its system Tyrophagus putrescentiae. Kind of experiment: Insecticidal activity against Tyrophagus putrescentiae assessed as mortality at 0.60 g/m'2 after 24 hr by clip method. In kind it is functional.
In experiment [14] the test system is Dermatophagoides farinae. Kind of experiment: Insecticidal activity against Dermatophagoides farinae assessed as mortality at 0.60 g/m'2 after 24 hr by clip method. Format: functional.
In experiment [15] the test system is Dermatophagoides farinae. Kind of experiment: Insecticidal activity against Dermatophagoides farinae assessed as mortality at 1 g/m'2 after 24 hr by clip method. In kind it is functional.
For experiment [16], the system named is Coptotermes formosanus. Kind of experiment: Insecticidal activity against Coptotermes formosanus assessed as mortality at 0.010 g/m'2 after 48 hr. Format: functional.
Experiment [17] relates to Dermatophagoides farinae. Kind of experiment: Insecticidal activity against Dermatophagoides farinae assessed as mortality at 0.80 g/m'2 after 24 hr by clip method. Format: functional.
For experiment [18], the system named is Coptotermes formosanus. Kind of experiment: Insecticidal activity against Coptotermes formosanus assessed as mortality at 0.020 g/m'2 after 24 hr. Format: functional.
Experiment [19] concerns Coptotermes formosanus. Kind of experiment: Insecticidal activity against Coptotermes formosanus assessed as mortality at 1 g/m'2 after 48 hr. Format: functional.
The test system of experiment [20] is Coptotermes formosanus. Kind of experiment: Insecticidal activity against Coptotermes formosanus assessed as mortality at 0.010 g/m'2 after 24 hr. In kind it is functional.
Experiment [21] relates to Dermatophagoides farinae. Kind of experiment: Insecticidal activity against Dermatophagoides farinae assessed as mortality at 0.03 g/m'2 after 24 hr by clip method. In kind it is functional.
Experiment [22] deals with Coptotermes formosanus. Kind of experiment: Insecticidal activity against Coptotermes formosanus assessed as mortality at 0.020 g/m'2 after 48 hr. Format: functional.
Experiment [23] deals with Tyrophagus putrescentiae. Kind of experiment: Insecticidal activity against Tyrophagus putrescentiae assessed as mortality at 1 g/m'2 after 24 hr by clip method. Format: functional.

≈ marks a conversion by molar mass, not a printed value.

What is called mortality is the share of the test organisms that died. As a reminder, the MIC is the least concentration at which growth counts as inhibited. One may read the IC50 as the concentration at which inhibition is half-maximal. A high value points to weaker potency.

`CC(C)c1cccc(=O)c(O)c1` [HINOKITIOL]: the mortality in the experiment with Tyrophagus putrescentiae [1] is given as 91.3%; in the experiment on Tyrophagus putrescentiae [2], 11.9%; with Coptotermes formosanus [3], 10%; in the experiment on Tyrophagus putrescentiae [4], 55.5%; with Dermatophagoides farinae [5], 100%; in the experiment on Tyrophagus putrescentiae [6], 77.5%. Moreover, the mortality in the experiment with Coptotermes formosanus [7] is 20%; in the experiment on Dermatophagoides farinae [8], 18.8%; with Dermatophagoides farinae [9], 100%; in the experiment with Dermatophagoides farinae [10], 7.8%. The values for the minimal inhibitory concentration (MIC) against Phomopsis obscurans and against Colletotrichum lagenaria were 12 µg/mL (≈ 73.1 µM) and 25 µg/mL (≈ 152 µM), respectively. The IC50 at Thermolysin is 61 µM.
On to `O=c1cccccc1O` [TROPOLONE], for which the mortality with Tyrophagus putrescentiae [11] is given as 100%; in the experiment with Coptotermes formosanus [12] it was 100%; with Tyrophagus putrescentiae [13], 79.8%; in the experiment with Dermatophagoides farinae [14], 100%; in the experiment on Dermatophagoides farinae [15], 100%; in the experiment on Tyrophagus putrescentiae [6], 55.8%. In addition, the mortality in the experiment on Coptotermes formosanus [16] is reported as 0%; in the experiment with Dermatophagoides farinae [17], 100%; with Coptotermes formosanus [18], 37.5%; in the experiment with Coptotermes formosanus [19], 100%; with Coptotermes formosanus [20], 0%; in the experiment with Dermatophagoides farinae [21], 0%. Further, the mortality in the experiment on Dermatophagoides farinae [8] is reported as 7.5%; in the experiment on Coptotermes formosanus [22], 57.9%; with Tyrophagus putrescentiae [23], 100%. For the same molecule, the MIC against Phomopsis obscurans and against Colletotrichum lagenaria was 12 µg/mL (≈ 98.3 µM) each time. This molecule also returned a half-inhibitory concentration (IC50) on Thermolysin of 71.1 µM.

These data come from ChEMBL document CHEMBL3046644, “Biological activity of tropolone” (Biol Pharm Bull, 2003).
